Key:
Type in all cases: cell-based
RS4; 11 = assay: Cell growth inhibition, CellTiter-Glo Luminescent Cell Viability Assay, RS4;11; settings: Homo sapiens, 96 h, RS4;11 cells, 4 days incubation
Experimental: (§1) Cell growth inhibitory activity of representative Compounds of the Disclosure was determined in various cell lines using CellTiter-Glo® Luminescent Cell Viability Assay. Cells were seeded in 384-well white opaque cell culture plates at a density of 2,000 cells/well with serially diluted compounds and incubated at 37° C. in an atmosphere of 95% air and 5% CO2 for 4 days. Cell viability was determined using the CellTiter-Glo® Luminescent Cell Viability Assay Kit (Promega, Madison, Wis.) according to the manufacture's instruction. Briefly, a volume of CellTiter-Glo® Reagent equal to the volume of cell culture medium was added to each well, and then the plates were incubated at room temperature for 10-20 minutes. The luminescent signal was measured using a Tecan Infinite M1000 multimode microplate reader (Tecan, Morrisville, N.C.). The half maximal inhibitory concentration (IC50) was calculated using the GraphPad Prism 5 software (GraphPad Software, La Jolla, Calif.).

MOLM-13 = assay: Cell growth inhibition, CellTiter-Glo Luminescent Cell Viability Assay, MOLM-13; settings: Homo sapiens, MOLM-13 cells, 4 days incubation
Outline: (§2)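 IC50 values come from CellTiter-Glo ATP luminescence after a 4-day exposure to a compound dilution series. Seeding was 2,000 cells per well at 37° C under 5% CO2, with reagent read after 10-20 min at room temperature.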

MDA-MB-231 = assay: Cell growth inhibition, CellTiter-Glo Luminescent Cell Viability Assay, MDA-MB-231; settings: Homo sapiens, MDA-MB-231 cells, 4 days incubation
Outline: as §2

MDA-MB-468 = assay: Cell growth inhibition, CellTiter-Glo Luminescent Cell Viability Assay, MDA-MB-468; settings: Homo sapiens, 96 h, MDA-MB-468 cells, 4 days incubation
Experimental: as §1

Structure (SMILES) | IC50 (RS4; 11) [nM] | IC50 (MOLM-13; MOLM-13, 96 h) [nM] | IC50 (MDA-MB-231; MDA-MB-231, 96 h) [nM] | IC50 (MDA-MB-468) [nM] | IC50 (MOLM-13; 96 h) [nM] | IC50 (MDA-MB-231; 96 h) [nM]
Cc1c(C#Cc2ccc(CCCCOc3cccc4c3C(=O)N(C3CCC(=O)NC3=O)C4=O)cn2)sc2c1C(c1ccc(Cl)cc1)=N[C@@H](C)c1nnc(C)n1-2 (stereo partly drawn) [Cpd. No. 10, 4-(4-(6-(((S)-4-(4-chlorophenyl)-3,6,9-trimethyl-6H-thieno[3,2-f][1,2,4]triazolo[4,3-a][1,4]diazepin-2-yl)ethynyl)pyridin-3-yl)butoxy)-2-(2,6-dioxopiperidin-3-yl)isoindoline-1,3-dione] | 0.26 |  |  | 5.2 | 2.5 | 1.6
Cc1c(C#Cc2cn(CCCCCc3cccc4c3CN(C3CCC(=O)NC3=O)C4=O)nn2)sc2c1C(c1ccc(Cl)cc1)=N[C@@H](C)c1nnc(C)n1-2 (stereo partly drawn) [Cpd. No. 4, 3-(4-(5-(4-(((S)-4-(4-chlorophenyl)-3,6,9-trimethyl-6H-thieno[3,2 f][1,2,4]triazolo[4,3-a][1,4]diazepin-2-yl)ethynyl)-1H-1,2,3-triazol-1-yl)pentyl)-1-oxoisoindolin-2-yl)piperidine-2,6-dione] | < 0.0015 |  |  | < 0.015 | 0.3 | < 0.015
Cc1c(C#Cc2cnn(CCCCCc3cccc4c3CN(C3CCC(=O)NC3=O)C4=O)c2)sc2c1C(c1ccc(Cl)cc1)=NCc1nnc(C)n1-2 (centres unmarked) [Cpd. No. 23, 3-(4-(5-(4-((4-(4-chlorophenyl)-3,9-dimethyl-6H-thieno[3,2-f][1,2,4]triazolo[4,3-a][1,4]diazepin-2-yl)ethynyl)-1H-pyrazol-1-yl)pentyl)-1-oxoisoindolin-2-yl)piperidine-2,6-dione] | 0.3 | 1.9 | 1.7 | 4.2 |  | 

Further lines, with some results ahead:

IC50 (RS4; 11) [nM] | IC50 (MOLM-13; MOLM-13, 96 h) [nM] | IC50 (MDA-MB-231; MDA-MB-231, 96 h) [nM] | IC50 (MDA-MB-468) [nM] | Structure (SMILES) | IC50 (MOLM-13; 96 h) [nM] | IC50 (MDA-MB-231; 96 h) [nM]
0.1 | 0.8 | 0.08 | 0.2 | Cc1c(C#Cc2cnn(CCCC#Cc3cccc4c3CN(C3CCC(=O)NC3=O)C4=O)c2)sc2c1C(c1ccc(Cl)cc1)=NCc1nnc(C)n1-2 (centres unmarked) [Cpd. No. 20, 3-(4-(5-(4-((4-(4-chlorophenyl)-3,9-dimethyl-6H-thieno[3,2-f][1,2,4]triazolo[4,3-a][1,4]diazepin-2-yl)ethynyl)-1H-pyrazol-1-yl)pent-1-yn-1-yl)-1-oxoisoindolin-2-yl)piperidine-2,6-dione] |  | 
1 | 6.4 | 30.4 | 32.9 | Cc1c(C#Cc2cnn(CCCC#Cc3ccc(F)c4c3CN(C3CCC(=O)NC3=O)C4=O)c2)sc2c1C(c1ccc(Cl)cc1)=NCc1nnc(C)n1-2 (centres unmarked) [compound 142, 3-(4-(5-(4-((4-(4-chlorophenyl)-3,9-dimethyl-6H-thieno[3,2-f][1,2,4]triazolo[4,3-a][1,4]diazepin-2-yl)ethynyl)-1H-pyrazol-1-yl)pent-1-yn-1-yl)-7-fluoro-1-oxoisoindolin-2-yl)piperidine-2,6-dione] |  | 
